Type in all cases: biochemical
Test [1] addresses horse plasma butyrylcholinesterase (eqBuChE) (Equus caballus (Horse), UniProt P81908). As to the kind of experiment: Ellman's test, inhibition of horse plasma butyrylcholinesterase. As for the experimental part:
(§1) The spectrophotometric Ellman's test [Ellman et al.] modified for assays in 96-well plates was used to test the activity. Reagents: 5,5′-dithiobis-(2-nitrobenzoic acid) (DTNB), eqBuChE and butyrylthiocholine iodide (BTC) were purchased from Sigma-Aldrich (Steinheim, Germany). hBuChE was from Vivonics (Bedford, MA, USA). The enzymes were prepared by dissolving in demineralized water to a concentration of 0.384 U/ml. Stock solutions of test compounds were prepared by dissolving in DMSO to a concentration of 0.0034 M. They were then diluted with water to obtain the appropriate concentrations in the wells. In the first step of the test, 25 μl of test compound (or DMSO/water mixture at the appropriate ratio for blank samples) was incubated in 0.1 M phosphate buffer (200 μl, pH=8.0) with DTNB (20 μl; 0.0025M) and with the appropriate enzyme (20 μl; eqBuChE or hBuChE) at 25° C. (animal enzyme) or 36° C. (human enzyme). After a 5 minutes incubation period, 20 μl of BTC solution (0.00375 M) was added. After another 5 minutes, the changes in absorbance of the solutions were measured at 412 nm using a multifunctional microplate reader (EnSpire Multimode; PerkinElmer; Waltham, MA, USA). All compounds were tested at a screening concentration of 10 μM (eqBuChE) or 1 μM (hBuChE). The percentage of enzyme inhibition was calculated from the equation 100-(S/B)×100, where S and B were the enzymatic activity in the test sample well and in the well without sample, respectively. […] All reactions were performed in triplicate. IC50 values were calculated using non-linear regression (GraphPad Prism 5 [GraphPad Software, San Diego, CA, USA 5.00]) for the percentage of enzyme inhibition against the inhibitor concentration used. Tacrine and donepezil were used as reference compounds.

In test [2] the target is human plasma butyrylcholinesterase (hBuChE) (Homo sapiens (Human), UniProt P06276). As to the kind of experiment: Ellman's test, inhibition of human plasma butyrylcholinesterase. As to conditions: for inhibition at 1 µM: 1 μM inhibitor concentration, read-out: hBuChE % inh. As for the experimental part:
as §1

For test [3], the target named is human recombinant beta-secretase (hBACE1) (Homo sapiens (Human), UniProt P56817). The test is described as follows: FRET assay, inhibition of human recombinant beta-secretase. As to conditions: for IC50: read-out: hBACE-1 IC50; for inhibition at 50 µM: 50 μM inhibitor concentration, read-out: hBACE-1 % inh. The procedure:
The FRET assay [Vassar, et al.] was used to test activity using 384-well black plates and a microplate reader (EnSpire Multimode; PerkinElmer; Waltham, MA, USA). The test was purchased from Life Technologies Polska Sp. z o.o. (Warsaw, Poland). […] Stock solutions of test compounds were prepared in DMSO and then further diluted with assay buffer (50 mM sodium acetate; pH 4.5) to the appropriate concentrations in the wells. In the first step of the test, 10 μl of the substrate (Rh-[…] quencher, based on the so-called Swedish APP mutation) was mixed with 10 μl of the test compound (or assay buffer; for blank sample). The enzyme reaction was initiated by adding 10 μl of enzyme (hBACE1, 1 U/ml). The reaction mixture was incubated at 25° C. for 60 minutes, then 10 μL of Stop solution (2.5 M sodium acetate) was added. After stopping the reaction, fluorescence was measured at 576 nm. The percentage of enzyme inhibition was calculated from the formula [1−(S60−S0)/(C60−C0)]×100, where S0 and S60 are the fluorescence of the test sample (containing the enzyme, substrate and test compound) at the start of the reaction and after 60 minutes, respectively, whereas C0 and C60 were analogous fluorescence intensities in the blank samples (containing enzyme, substrate and buffer). All test compounds were tested at a concentration of 50 μM in triplicate. […] A BACE1 IV inhibitor (Calbiochem, Merck; Nottingham, UK) [Stachel et al.] was used as a reference compound. […] IC50 values for all test compounds were calculated using non-linear regression (GraphPad Prism 5 [GraphPad Software, San Diego, CA, USA 5.00]) for the percentage of enzyme inhibition against the inhibitor concentration used.

The target in test [4] is Recombinant human Aβ1-42 peptide (Homo sapiens (Human), UniProt P05067). As to the kind of experiment: Thioflavin T test, antiaggregation activity against beta-amyloid. Conditions: 10 μM test compound, 1.5 μM Aβ1-42; read-out: inh. Aβ aggr. % inh. The procedure: The thioflavin T test [Levine III] was used for the determinations. Recombinant human Aβ1-42 peptide (HFIP pretreated, Merck Millipore, Darmstadt, Germany) was dissolved in DMSO to form a 75 μM stock solution. The solution was further diluted in HEPES buffer (150 mM HEPES, pH 7.4, 150 mM NaCl) to a concentration of 7.5 μM. Then, the Aβ1-42 solution was added to the test compounds (black 96-well plates were used) and diluted with thioflavin T solution (10 μM final concentration). The final mixture contained 1.5 μM Aβ1-42, 10 μM test compound, and 3% of DMSO. Fluorescence was measured every 300 s (excitation wavelength was 440 nm, emission wavelength was 490 nm) with continuous mixing between measurements. A multifunction microplate reader (Synergy H4; BioTek Instruments, Inc., Winooski, VT, USA) was used to measure the fluorescence. Fluorescence started increasing after approximately 4 hours, plateaued after 20 hours and remained virtually unchanged for the next 28 hours of incubation. The plateau-phase fluorescence intensities (in the presence and absence of test compounds) were averaged and the mean fluorescence values for the respective wells at t=0 h were subtracted from them. […] IC50 values were calculated using non-linear regression (GraphPad Prism 5 [GraphPad Software, San Diego, CA, USA 5.00]) for the percentage of aggregation inhibition against the inhibitor concentration used.

IC50 and inhibition data for 15 compounds are collected here from patent US12492163B2, “9H-fluorene derivatives or their pharmaceutically acceptable salts” (priority 2020, dated 2025).

Sequence of human plasma butyrylcholinesterase (hBuChE) (P06276 29-602): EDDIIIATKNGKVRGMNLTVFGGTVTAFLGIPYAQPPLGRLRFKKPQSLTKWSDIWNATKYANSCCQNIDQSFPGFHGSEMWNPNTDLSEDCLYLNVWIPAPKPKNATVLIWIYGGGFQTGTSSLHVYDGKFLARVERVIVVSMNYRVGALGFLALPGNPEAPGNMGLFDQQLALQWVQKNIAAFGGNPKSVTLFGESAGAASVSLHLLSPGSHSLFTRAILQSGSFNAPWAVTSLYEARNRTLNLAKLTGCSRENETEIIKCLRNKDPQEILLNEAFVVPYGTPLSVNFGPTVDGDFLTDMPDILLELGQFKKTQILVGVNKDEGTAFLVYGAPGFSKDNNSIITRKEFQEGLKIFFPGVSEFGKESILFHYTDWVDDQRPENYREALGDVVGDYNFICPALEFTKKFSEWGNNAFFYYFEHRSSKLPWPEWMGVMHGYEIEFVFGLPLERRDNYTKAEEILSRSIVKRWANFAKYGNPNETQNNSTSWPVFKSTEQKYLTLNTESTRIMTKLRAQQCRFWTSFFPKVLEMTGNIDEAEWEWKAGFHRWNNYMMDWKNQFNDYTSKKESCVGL
Sequence of human recombinant beta-secretase (hBACE1) (P56817 46-501): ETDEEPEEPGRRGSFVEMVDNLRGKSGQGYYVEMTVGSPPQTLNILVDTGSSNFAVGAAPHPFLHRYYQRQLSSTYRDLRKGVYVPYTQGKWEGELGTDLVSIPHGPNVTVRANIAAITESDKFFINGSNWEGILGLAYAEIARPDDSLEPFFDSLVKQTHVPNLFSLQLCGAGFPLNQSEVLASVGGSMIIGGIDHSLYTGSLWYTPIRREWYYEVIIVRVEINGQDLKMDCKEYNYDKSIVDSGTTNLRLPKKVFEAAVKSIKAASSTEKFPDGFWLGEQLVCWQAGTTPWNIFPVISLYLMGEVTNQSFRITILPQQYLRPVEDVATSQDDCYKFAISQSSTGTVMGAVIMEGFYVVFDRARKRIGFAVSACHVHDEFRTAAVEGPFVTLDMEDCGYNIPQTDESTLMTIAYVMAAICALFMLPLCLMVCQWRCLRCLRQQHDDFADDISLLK
Sequence of Recombinant human Aβ1-42 peptide (P05067 672-713): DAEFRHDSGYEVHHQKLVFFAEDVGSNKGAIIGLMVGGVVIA
Sequence of horse plasma butyrylcholinesterase (eqBuChE) (P81908 whole entry): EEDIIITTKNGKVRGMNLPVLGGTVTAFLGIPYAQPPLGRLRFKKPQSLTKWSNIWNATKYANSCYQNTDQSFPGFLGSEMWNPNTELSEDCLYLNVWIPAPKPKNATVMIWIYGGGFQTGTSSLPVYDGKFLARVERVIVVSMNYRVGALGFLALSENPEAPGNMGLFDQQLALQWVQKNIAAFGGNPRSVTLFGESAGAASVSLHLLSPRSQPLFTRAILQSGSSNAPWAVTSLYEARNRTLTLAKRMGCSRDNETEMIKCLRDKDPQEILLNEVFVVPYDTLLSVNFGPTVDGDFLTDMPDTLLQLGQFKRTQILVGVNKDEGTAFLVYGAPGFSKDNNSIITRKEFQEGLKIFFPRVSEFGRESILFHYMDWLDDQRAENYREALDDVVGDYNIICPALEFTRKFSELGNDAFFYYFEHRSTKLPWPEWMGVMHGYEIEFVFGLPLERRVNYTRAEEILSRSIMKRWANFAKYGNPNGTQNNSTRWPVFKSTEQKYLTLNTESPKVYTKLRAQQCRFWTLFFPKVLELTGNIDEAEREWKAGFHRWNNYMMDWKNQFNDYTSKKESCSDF

Take `O[C@@H](CNCc1ccccc1)[C@H](Cc1ccccc1)NC1c2ccccc2-c2ccccc21` [Compound 2, (2S,3S)-3-((9H-fluoren-9-yl)amino)-1-(benzylamino)-4-phenylbutan-2-ol]: the IC50 in test [1] was 0.333 µM; in test [2], 0.571 µM; in test [3], 4.82 µM. Moreover, the inhibition at 10 µM in test [4] was determined as 86.3%.

Turning to `CC(C)c1cccc(CNC[C@@H](O)[C@H](Cc2ccccc2)NC2c3ccccc3-c3ccccc32)c1` [Compound 4, (2R,3S)-3-((9H-fluoren-9-yl)amino)-1-((3-isopropylbenzyl)amino)-4-phenylbutan-2-ol], the IC50 was 0.514 µM in test [1], 0.489 µM in test [2] and 3.92 µM in test [3]. Also, the inhibition at 10 µM in test [4] was determined as 83.7%.

`CC(C)(C)c1ccc(CNC[C@H](O)[C@H](Cc2ccccc2)NC2c3ccccc3-c3ccccc32)cc1` [Compound 5, (2S,3S)-3-((9H-fluoren-9-yl)amino)-1-((4-(tert-butyl)benzyl)amino)-4-phenylbutan-2-ol]: the IC50 in test [1] was 0.803 µM; in test [3], 6.64 µM. The inhibition at 1 µM in test [2] was 62%. Also, in test [4], the inhibition at 10 µM is 75.6%.

In the case of `O[C@H](CNCc1cccc(C(F)(F)F)c1)[C@H](Cc1ccccc1)NC1c2ccccc2-c2ccccc21` [Compound 8, (2R,3S)-3-((9H-fluoren-9-yl)amino)-4-phenyl-1-((3-(trifluoromethyl)benzyl)amino)-butan-2-ol], the half-maximal inhibitory concentration (IC50) in test [1] stood at 0.751 µM; in test [2], 0.721 µM; in test [3] it was 3.19 µM. Besides, the inhibition at 10 µM in test [4] was 72.4%.

Regarding `C[C@H](NC[C@@H](O)[C@H](Cc1ccccc1)NC1c2ccccc2-c2ccccc21)c1ccccc1` [Compound 9, (2R,3S)-3-((9H-fluoren-9-yl)amino)-4-phenyl-1-(((S)-1-phenylethyl)amino)butan-2-ol], the IC50 was found to be 0.264 µM in test [1], 0.812 µM in test [2] and 20.1 µM in test [3]. Further, in test [4], the inhibition at 10 µM came out at 63%.

Regarding `CC(C)(NC[C@@H](O)[C@H](Cc1ccccc1)NC1c2ccccc2-c2ccccc21)c1ccccc1` [Compound 10, (2R,3S)-3-((9H-fluoren-9-yl)amino)-4-phenyl-1-((2-phenylpropan-2-yl)amino)butan-2-ol], the IC50 worked out at 0.345 µM in test [1], 1.17 µM in test [2] and 17.2 µM in test [3]. Further, the inhibition at 10 µM in test [4] is 90.8%.

As for `CC(C)(C)NC[C@H](O)[C@H](Cc1ccccc1)NC1c2ccccc2-c2ccccc21` [Compound 12, (2S,3S)-3-((9H-fluoren-9-yl)amino)-1-(tert-butylamino)-4-phenylbutan-2-ol], the midpoint of inhibition in test [1], the IC50, lay at 4.84 µM. Also, the inhibition at 1 µM in test [2] was 58.8%. The inhibition at 50 µM in test [3] turned out to be 48.7%. Also, the inhibition at 10 µM in test [4] is 67.2%.

On to `CC(C)(C)CNC[C@@H](O)[C@H](Cc1ccccc1)NC1c2ccccc2-c2ccccc21` [Compound 13, (2R,3S)-3-((9H-fluoren-9-yl)amino)-1-(neopentylamino)-4-phenylbutan-2-ol], for which the IC50 worked out at 1.18 µM in test [1] and 8.59 µM in test [3]. For the same compound, the inhibition at 1 µM in test [2] was found to be 61.3%. Also, the inhibition at 10 µM in test [4] worked out at 80.2%.

Take `O[C@H](CNCC(F)(F)F)[C@H](Cc1ccccc1)NC1c2ccccc2-c2ccccc21` [Compound 14, (2R,3S)-3-((9H-fluoren-9-yl)amino)-4-phenyl-1-((2,2,2-trifluoroethyl)amino)butan-2-ol]: the IC50 in test [1] worked out at 1.08 µM. In addition, in test [2], the inhibition at 1 µM was 67.9%. In addition, the inhibition at 50 µM in test [3] was determined as 36.8%. Besides, the inhibition at 10 µM in test [4] was found to be 82.5%.

For the compound `O[C@@H](CNCC1CC1)[C@H](Cc1ccccc1)NC1c2ccccc2-c2ccccc21` [Compound 15, (2S,3S)-3-((9H-fluoren-9-yl)amino)-1-((cyclopropylmethyl)amino)-4-phenylbutan-2-ol], the results for the half-maximal inhibitory concentration (IC50) in test [1] and in test [2] were 0.975 µM and 1.03 µM, respectively.

As for `CC(C)(C)c1ccc(CNC[C@H](O)[C@H](Cc2ccccc2)NC(=O)C2c3ccccc3-c3ccccc32)cc1` [Compound 18, N-((2S,3S)-4-((4-(tert-butyl)benzyl)amino)-3-hydroxy-1-phenylbutan-2-yl)-9H-fluorene-9-carboxamide], the half-maximal inhibitory concentration (IC50) was 1.22 µM in test [1] and 1.12 µM in test [3]. Moreover, the inhibition at 1 µM in test [2] was found to be 55.6%. In addition, the inhibition at 10 µM in test [4] was determined as 63.5%.

For `O=C(CC1c2ccccc2-c2ccccc21)N[C@@H](Cc1ccccc1)[C@H](O)CNCc1cccc(C(F)(F)F)c1` [Compound 21, 2-(9H-fluoren-9-yl)-N-((2S,3R)-3-hydroxy-1-phenyl-4-((3-(trifluoromethyl)benzyl)-amino)butan-2-yl)acetamide], the figures for the IC50 in test [1] and in test [3] were 2.02 µM and 2.12 µM, respectively. Besides, in test [2], the inhibition at 1 µM is 54.3%. In addition, in test [4], the inhibition at 10 µM was below 10%.

`CC(C)(NC[C@@H](O)[C@H](Cc1ccccc1)NC(=O)C1c2ccccc2-c2ccccc21)c1ccccc1` [Compound 24, N-((2S,3R)-3-hydroxy-1-phenyl-4-((2-phenylpropan-2-yl)amino)butan-2-yl)-9H-fluorene-9-carboxamide]: the IC50 stood at 2.84 µM in test [1] and 5.15 µM in test [3]. In addition, the inhibition at 1 µM in test [2] is 21.4%. Moreover, in test [4], the inhibition at 10 µM was determined as 61%.

Turning to `CC(C)(NC[C@@H](O)[C@H](Cc1ccccc1)NC(=O)CC1c2ccccc2-c2ccccc21)c1ccccc1` [Compound 25, 2-(9H-fluoren-9-yl)-N-((2S,3R)-3-hydroxy-1-phenyl-4-((2-phenylpropan-2-yl)amino)-butan-2-yl)acetamide], the IC50 in test [1] was determined as 1.27 µM; in test [3], 4.96 µM. Moreover, in test [2], the inhibition at 1 µM was determined as 71.7%. Also, in test [4], the inhibition at 10 µM worked out at 63%.

For `CC(C)(C)CNC[C@@H](O)[C@H](Cc1ccccc1)NC(=O)C1c2ccccc2-c2ccccc21` [Compound 26, N-((2S,3R)-3-hydroxy-4-(neopentylamino)-1-phenylbutan-2-yl)-9H-fluorene-9-carboxamide], in test [1], the IC50 worked out at 1.09 µM. Moreover, in test [2], the inhibition at 1 µM was found to be 61.1%. Besides, in test [3], the inhibition at 50 µM was 54.5%. Further, the inhibition at 10 µM in test [4] was 39.5%.
